Source: US5087620A, “Controlled dermal penetration enhancement using imidazoles” (Bristol-Myers Squibb Co., priority 1990, dated 1992)

Assays:
[1] = In vitro skin penetration study, excised human skin, Franz diffusion cells (Example 1A-1C); type: in vitro ADME
Description: Normal excised human skin samples obtained from breast reduction were used. Appropriate size specimens were frozen on the microtome with carbon dioxide and sectioned to a layer around 200 micrometers thick and stored in normal saline at 5° C. The skin sections were mounted on 9 mm inside diameter flat-top Franz diffusion cells. The diffusional cross-sectional area of the skin was 0.636 cm^2. A 50 microliter sample of a test formulation was placed on the skin in the donor compartment and the receiver compartment was filled with about 5 ml of normal saline (with pH adjusted to 4 with citric acid) and was well stirred. Water at 37.4° C. was circulated throughout the water jacket of the diffusion cell. A 100 microliter sample was withdrawn from the receiver compartment at appropriate intervals and analyzed for drug content by HPLC. The receptor fluid was replenished with normal saline after each withdrawal. All the receptor fluid and replenished fluid were thoroughly degassed before use.

volar forearms [2] = assay: Vasoconstriction (skin blanching) assay, double-blind within subject study (Example 2); type: in vivo, human; settings: inclusion of dermal penetration controlling amount of SNO3, PG and IPM
Description: (§1) Equal amounts of each coded test medication (approximately 10 mg) were applied to 2cm^2 sites on the volar forearms and left in place, unoccluded, for 8 hours. Vasoconstriction was assessed by grading the degree of blanching on a 4-point scale (none, mild, moderate, marked) at each test site at 4, 8, 10, 12 and 24 hours after application. Statistical analysis of the area under the curve (AUC) was conducted by ranking the AUC scores within each subject and performing an analysis of variance on the ranks (Friedman Test).

volar forearms [3] = assay: Vasoconstriction assay of Examples 3, 4 and 5 versus DIPROSONE and KENALOG (Example 6); type: in vivo, human
Description: as §1

forearms of humans = settings: general rule; depends on vehicle and concentration; cited from earlier work

| Structure (SMILES) | topical potency class (vasoconstriction assay) (forearms of humans) | other results |
| --- | --- | --- |
| CC1(C)O[C@@H]2C[C@H]3[C@@H]4CCC5=CC(=O)C=C[C@]5(C)[C@@]4(F)[C@@H](O)C[C@]3(C)[C@]2(C(=O)CO)O1 [TACA, triamcinolone acetonide] | mid-potency | penetration through the entire skin thickness (extent) [1]: only a small amount; potency class of TACA with SNO3, PG and IPM (volar forearms [2]): high potency steroid; potency class of TACA with SNO3, PG and IPM (volar forearms [3]; inclusion of SNO3, PG and IPM): high potency; TACA concentration needed for high potency in comparison to Kenalog cream (0.1% TACA) (volar forearms [3]; with SNO3, PG and IPM): three fold lower |
| C[C@H]1C[C@H]2[C@@H]3CCC4=CC(=O)C=C[C@]4(C)[C@@]3(F)[C@@H](O)C[C@]2(C)[C@@]1(O)C(=O)CO [betamethasone] | high potency | – |
| C[C@H]1C[C@H]2[C@@H]3CCC4=CC(=O)C=C[C@]4(C)[C@@]3(F)[C@@H](O)C[C@]2(C)[C@@]1(O)C(=O)CCl [clobetasol] | ultra high potency | – |
| C[C@]12CCC(=O)C=C1CC[C@@H]1[C@@H]2[C@@H](O)C[C@@]2(C)[C@H]1CC[C@]2(O)C(=O)CO [hydrocortisone] | low potency | – |
| C[C@H]1C[C@@H]2[C@H]([C@@H](O)C[C@@]3(C)[C@H]2CC[C@]3(O)C(=O)CO)[C@@]2(C)C=CC(=O)C=C12 [methylprednisolone] | low potency | – |
| C[C@]12C=CC(=O)C=C1CC[C@@H]1[C@@H]2[C@@H](O)C[C@@]2(C)[C@H]1CC[C@]2(O)C(=O)CO [prednisolone] | low potency | – |
